According to ChEMBL document CHEMBL1255545, “Synthesis and evaluation of 1,2,4-triazolo[1,5-c]pyrimidine derivatives as A2A receptor-selective antagonists” (Bioorg Med Chem Lett, 2010):

What was measured:
Format in all cases: cell-based
[1] = biological target: T1, Adenosine receptor A1 (Homo sapiens) (UniProt P30542); assay: Displacement of [3H]CCPA from human adenosine A1 receptor expressed in CHO cells at 10 uM
T1 sequence (whole entry): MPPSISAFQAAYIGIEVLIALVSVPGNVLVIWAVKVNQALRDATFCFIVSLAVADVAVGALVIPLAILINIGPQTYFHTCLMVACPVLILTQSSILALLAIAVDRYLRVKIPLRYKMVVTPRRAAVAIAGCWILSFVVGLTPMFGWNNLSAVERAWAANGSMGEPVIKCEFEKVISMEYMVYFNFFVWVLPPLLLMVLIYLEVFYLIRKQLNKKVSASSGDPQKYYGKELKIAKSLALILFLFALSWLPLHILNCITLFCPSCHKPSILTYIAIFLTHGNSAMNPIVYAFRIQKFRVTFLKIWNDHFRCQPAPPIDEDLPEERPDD

Adenosine receptor A2a = Adenosine receptor A2a (Homo sapiens, UniProt P29274); assay: Displacement of [3H]CGS21680 from human adenosine A2A receptor expressed in HEK293 cells at 10 uM
[2] = biological target: T2, Adenosine receptor A3 (Homo sapiens) (UniProt P0DMS8); assay: Displacement of [125I]I-AB-MECA from human adenosine A3 receptor expressed in CHO cells at 10 uM
T2 sequence (whole entry): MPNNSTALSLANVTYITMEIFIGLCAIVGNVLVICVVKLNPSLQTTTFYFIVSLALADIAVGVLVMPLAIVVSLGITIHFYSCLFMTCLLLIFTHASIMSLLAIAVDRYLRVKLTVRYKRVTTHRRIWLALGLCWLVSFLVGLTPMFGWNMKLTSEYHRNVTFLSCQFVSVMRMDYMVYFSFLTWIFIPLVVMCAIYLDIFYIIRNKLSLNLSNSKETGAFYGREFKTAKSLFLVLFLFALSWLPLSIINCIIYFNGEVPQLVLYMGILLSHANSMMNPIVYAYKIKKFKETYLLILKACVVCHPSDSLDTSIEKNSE

Adenosine receptor A3 = biological target: T3, Adenosine receptor A3 (Homo sapiens, UniProt P0DMS8); assay: Displacement of [125I]I-AB-MECA from human adenosine A3 receptor expressed in CHO cells
T3 sequence (P0DMS8 whole entry): T2 sequence (whole entry)

Sequence of Adenosine receptor A2a (P29274 whole entry): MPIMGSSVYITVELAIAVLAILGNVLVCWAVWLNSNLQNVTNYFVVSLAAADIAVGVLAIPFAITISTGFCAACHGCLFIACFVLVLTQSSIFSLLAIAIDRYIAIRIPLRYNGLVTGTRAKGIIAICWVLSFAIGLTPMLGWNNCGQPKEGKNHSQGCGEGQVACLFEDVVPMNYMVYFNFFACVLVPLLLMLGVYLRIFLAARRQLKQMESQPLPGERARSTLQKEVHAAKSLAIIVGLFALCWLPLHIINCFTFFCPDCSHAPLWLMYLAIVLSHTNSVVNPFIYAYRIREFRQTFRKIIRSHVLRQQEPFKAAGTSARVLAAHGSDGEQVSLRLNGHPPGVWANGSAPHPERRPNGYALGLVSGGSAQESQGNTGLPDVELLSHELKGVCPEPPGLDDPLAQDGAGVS

inhibition [1]	Ki (Adenosine receptor A2a)	inhibition [2]	Ki (Adenosine receptor A3)	Compound
7.3%	308 nM	17.8%	–	Nc1nc2c(cnn2CCCc2ccc(O/C=C/c3ccccc3)cc2)c2nc(-c3ccco3)nn12
35%	13.3 nM	72.8%	–	CC(C)Oc1ccc(CCCn2ncc3c2nc(N)n2nc(-c4ccco4)nc32)cc1
25.5%	14.4 nM	44.8%	–	C=CCCOc1ccc(CCCn2ncc3c2nc(N)n2nc(-c4ccco4)nc32)cc1
38.4%	–	67.4%	–	COc1ccc(CCCn2ncc3c2nc(N)n2nc(-c4ccco4)nc32)cc1
17.9%	11.7 nM	36.5%	–	CCCOc1ccc(CCCn2ncc3c2nc(N)n2nc(-c4ccco4)nc32)cc1
47.9%	23.9 nM	57.8%	–	Nc1nc2c(cnn2CCCc2ccc(OCCO)cc2)c2nc(-c3ccco3)nn12
42.7%	12.4 nM	59.6%	–	Nc1nc2c(cnn2CCCc2ccc(OCCF)cc2)c2nc(-c3ccco3)nn12
6.9%	78.9 nM	18.2%	–	Nc1nc2c(cnn2CCCc2ccc(OCCc3ccccc3)cc2)c2nc(-c3ccco3)nn12
16.8%	22.1 nM	41.9%	–	CCC(C)Oc1ccc(CCCn2ncc3c2nc(N)n2nc(-c4ccco4)nc32)cc1 (stereo not drawn)
4.8%	43.9 nM	–	4940 nM	CCOc1ccc(CCCn2ncc3c2nc(N)n2nc(-c4ccco4)nc32)cc1
27.8%	45.7 nM	62.4%	–	CS(=O)(=O)OCCOc1ccc(CCCn2ncc3c2nc(N)n2nc(-c4ccco4)nc32)cc1
44.3%	48.3 nM	34.2%	–	Nc1nc2c(cnn2CCCc2ccc(O)cc2)c2nc(-c3ccco3)nn12
32.8%	9 nM	62.5%	–	C=CCOc1ccc(CCCn2ncc3c2nc(N)n2nc(-c4ccco4)nc32)cc1
